# According to ChEMBL document CHEMBL4813922, “Discovery of a novel small-molecule inhibitor of Fam20C that induces apoptosis and inhibits migration in triple negative breast cancer” (Eur J Med Chem, 2021):
# Activity calls are given as the source filed them. No cut-off for these calls is given here.
# Legend:
# MDA-MB-231 [1] = experiment: Induction of apoptosis in human MDA-MB-231 cells assessed as late apoptotic cells at 5 uM measured after 24 hrs by Annexin V-FITC/PI staining based flow cytometry (reference value: 3.02%); assay type: functional
# MDA-MB-231 [2] = experiment: Induction of apoptosis in human MDA-MB-231 cells assessed as necrotic cells at 2.5 uM measured after 24 hrs by Annexin V-FITC/PI staining based flow cytometrY (reference value: 0.64%); assay type: functional
# MDA-MB-468 = experiment: Antiproliferative activity against human MDA-MB-468 cells measured by MTT assay; assay type: functional, cell-based
# MDA-MB-231 [3] = experiment: Induction of apoptosis in human MDA-MB-231 cells assessed as upregulation of cleaved caspase 3 level at 2.5 to 5 uM measured after 24 hrs by western blot assay; assay type: functional, cell-based; conditions: dose 2.5-5 µM
# [4] = target: T1, Extracellular serine/threonine protein kinase FAM20C (Homo sapiens) (UniProt Q8IXL6); experiment: Inhibition of Fam20C (unknown origin) assessed as reduction in inorganic phosphate release in presence of ATP at 10 uM measured by Malachite green phosphate staining based micro plate reader assay relative to control
# T1 sequence (whole entry): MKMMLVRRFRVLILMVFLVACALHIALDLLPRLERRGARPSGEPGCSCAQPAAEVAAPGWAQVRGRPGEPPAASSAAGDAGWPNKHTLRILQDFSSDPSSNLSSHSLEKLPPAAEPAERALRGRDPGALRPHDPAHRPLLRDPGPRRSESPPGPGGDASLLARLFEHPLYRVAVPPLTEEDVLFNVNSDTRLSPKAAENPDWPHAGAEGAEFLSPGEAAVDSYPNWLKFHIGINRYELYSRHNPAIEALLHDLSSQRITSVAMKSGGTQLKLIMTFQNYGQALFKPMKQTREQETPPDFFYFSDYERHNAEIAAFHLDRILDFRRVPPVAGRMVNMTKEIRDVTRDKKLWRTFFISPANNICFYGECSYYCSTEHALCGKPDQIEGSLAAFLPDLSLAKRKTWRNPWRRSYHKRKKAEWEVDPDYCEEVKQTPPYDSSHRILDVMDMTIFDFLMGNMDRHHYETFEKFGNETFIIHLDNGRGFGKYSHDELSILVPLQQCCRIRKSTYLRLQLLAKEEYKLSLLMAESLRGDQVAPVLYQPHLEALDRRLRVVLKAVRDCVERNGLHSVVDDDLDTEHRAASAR
# MDA-MB-231 [5] = experiment: Induction of apoptosis in human MDA-MB-231 cells assessed as upregulation of Bax protein expression at 2.5 to 5 uM measured after 24 hrs by western blot assay; assay type: functional, cell-based; conditions: dose 2.5-5 µM
# MDA-MB-231 [6] = experiment: Antitumour activity against human MDA-MB-231 cells xenografted in Balb/c mouse assessed as decrease in Ki-67 expression in tumor at 50 mg/kg, ig measured after 14 days by immunohistochemistry method; assay type: functional, organism-based; conditions: time 14.0 day
# MDA-MB-231 [7] = experiment: Inhibition of cell migration in human MDA-MB-231 cells assessed as downregulation of MMP-2 protein expression at 2.5 uM measured after 24 hrs by immunofluorescence assay; assay type: functional, cell-based
# MDA-MB-231 [8] = experiment: Antitumour activity against human MDA-MB-231 cells xenografted in Balb/c mouse assessed as reduction in tumor weight at 25 to 50 mg/kg, ig for 14 days; assay type: functional, organism-based; conditions: dose 25-50 mg/kg, time 14.0 day
# MDA-MB-231 [9] = experiment: Inhibition of cell migration in human MDA-MB-231 cells at 2.5 uM measured after 12 hrs by Transwell assay; assay type: functional, cell-based
# MDA-MB-231 [10] = experiment: Induction of apoptosis in human MDA-MB-231 cells assessed as viable cells at 2.5 uM measured after 24 hrs by Annexin V-FITC/PI staining based flow cytometry (reference value: 94.3%); assay type: functional; conditions: read-out: Activity
# MDA-MB-231 [11] = experiment: Antitumour activity against human MDA-MB-231 cells xenografted in Balb/c mouse assessed as upregulation of Bax protein expression in tumor at 25 to 50 mg/kg, ig measured after 14 days by western blot method; assay type: functional, organism-based; conditions: dose 25-50 mg/kg, time 14.0 day
# MDA-MB-231 [12] = experiment: Inhibition of cell migration in human MDA-MB-231 cells assessed as decrease in wound closure at 2.5 uM measured after 24 hrs by scratch assay; assay type: functional, cell-based
# MDA-MB-231 [13] = experiment: Induction of apoptosis in human MDA-MB-231 cells assessed as viable cells at 5 uM measured after 24 hrs by Annexin V-FITC/PI staining based flow cytometry (reference value: 94.3%); assay type: functional; conditions: read-out: Activity
# MDA-MB-231 [14] = experiment: Induction of apoptosis in human MDA-MB-231 cells assessed as early apoptotic cells at 2.5 uM measured after 24 hrs by Annexin V-FITC/PI staining based flow cytometry (reference value: 2%); assay type: functional
# MCF7 = experiment: Antiproliferative activity against human MCF7 cells measured by MTT assay; assay type: functional, cell-based
# [15] = Toxicity in Balb/c mouse xenografted with human MDA-MB-231 cells assessed as changes in body weight at 50 mg/kg, ig measured after 14 days; assay type: organism-based; conditions: in vivo, po, 336 h, time 14 day
# MDA-MB-231 [16] = experiment: Inhibition of cell migration in human MDA-MB-231 cells assessed as upregulation of E-cadherin protein expression at 2.5 to 5 uM measured after 24 hrs by western blot assay; assay type: functional, cell-based; conditions: dose 2.5-5 µM
# MDA-MB-231 [17] = experiment: Antitumour activity against human MDA-MB-231 cells xenografted in Balb/c mouse assessed as downregulation of Bcl-2 protein expression in tumor at 25 to 50 mg/kg, ig measured after 14 days by western blot method; assay type: functional, organism-based; conditions: dose 25-50 mg/kg, time 14.0 day
# MCF-10A = experiment: Cytotoxicity against human MCF-10A cells assessed as inhibition of cell proliferation at 0.625 to 40 uM measured by MTT assay; assay type: cell-based; conditions: dose 0.625-40 µM
# MDA-MB-231 [18] = experiment: Induction of apoptosis in human MDA-MB-231 cells assessed as necrotic cells at 5 uM measured after 24 hrs by Annexin V-FITC/PI staining based flow cytometry (reference value: 0.64%); assay type: functional
# MDA-MB-231 [19] = experiment: Induction of apoptosis in human MDA-MB-231 cells assessed as downregulation of Bcl-2 protein expression at 2.5 to 5 uM measured after 24 hrs by western blot assay; assay type: functional, cell-based; conditions: dose 2.5-5 µM
# [20] = Toxicity in Balb/c mouse xenografted with human MDA-MB-231 cells assessed as changes in body weight at 25 mg/kg, ig measured after 14 days; assay type: organism-based; conditions: in vivo, po, 336 h, time 14 day
# MDA-MB-231 [21] = experiment: Induction of apoptosis in human MDA-MB-231 cells assessed as late apoptotic cells at 2.5 uM measured after 24 hrs by Annexin V-FITC/PI staining based flow cytometry (reference value: 3.02%); assay type: functional
# MDA-MB-231 [22] = experiment: Antiproliferative activity against human MDA-MB-231 cells measured by MTT assay; assay type: functional, cell-based
# MDA-MB-231 [23] = experiment: Inhibition of cell migration in human MDA-MB-231 cells assessed as upregulation of E-cadherin protein expression at 2.5 uM measured after 24 hrs by immunofluorescence assay; assay type: functional, cell-based
# MDA-MB-231 [24] = experiment: Inhibition of cell migration in human MDA-MB-231 cells assessed as downregulation of MMP-2 protein expression at 2.5 to 5 uM measured after 24 hrs by western blot assay; assay type: functional, cell-based; conditions: dose 2.5-5 µM
# [25] = target: T2, Extracellular serine/threonine protein kinase FAM20C (Homo sapiens, UniProt Q8IXL6); experiment: Inhibition of Fam20C (unknown origin) assessed as reduction in inorganic phosphate release in presence of ATP measured by Malachite green phosphate staining based micro plate reader assay
# T2 sequence (Q8IXL6 whole entry): T1 sequence (whole entry)
# MDA-MB-231 [26] = experiment: Antitumour activity against human MDA-MB-231 cells xenografted in Balb/c mouse assessed as increase in cleaved caspase 3 level in tumor at 25 to 50 mg/kg, ig measured after 14 days by western blot method; assay type: functional, organism-based; conditions: dose 25-50 mg/kg, time 14.0 day
# MDA-MB-231 [27] = experiment: Inhibition of colony formation in human MDA-MB-231 cells at 5 uM measured after 2 weeks by crystal violet staining based analysis; assay type: functional, cell-based
# MDA-MB-231 [28] = experiment: Induction of apoptosis in human MDA-MB-231 cells assessed as early apoptotic cells at 5 uM measured after 24 hrs by Annexin V-FITC/PI staining based flow cytometry (reference value: 2%); assay type: functional
# MDA-MB-231 [29] = experiment: Antitumour activity against human MDA-MB-231 cells xenografted in Balb/c mouse assessed as reduction in tumor volume at 25 to 50 mg/kg, ig for 14 days; assay type: functional, organism-based; conditions: dose 25-50 mg/kg, time 14.0 day
# MDA-MB-231 [30] = experiment: Induction of apoptosis in human MDA-MB-231 cells assessed as DNA condensation measured after 24 hrs by Hoechst 33258 staining based flourescence microscopic analysis; assay type: functional, cell-based
smiles,measurement,setting,value
COc1ccc(S(=O)(=O)Nc2ccc(Nc3nccc(Nc4cc(OC)c(OC)c(OC)c4)n3)cc2)cc1,Activity,MDA-MB-231 [1],33.2%
same,Activity,MDA-MB-231 [2],3.23%
same,IC50,MDA-MB-468,10.3 µM
same,Activity,MDA-MB-231 [3],Active
same,inhibition,[4],68%
same,Activity,MDA-MB-231 [5],Active
same,Activity,MDA-MB-231 [6],Active
same,inhibition,MDA-MB-231 [7],Active
same,Activity,MDA-MB-231 [8],Active
same,inhibition,MDA-MB-231 [9],Active
same,viability at 2.5 µM,MDA-MB-231 [10],70.8%
same,Activity,MDA-MB-231 [11],Active
same,inhibition,MDA-MB-231 [12],Active
same,viability at 5 µM,MDA-MB-231 [13],42%
same,Activity,MDA-MB-231 [14],10.7%
same,IC50,MCF7,9.7 µM
same,Activity,[15],Non-Toxic
same,inhibition,MDA-MB-231 [16],Active
same,Activity,MDA-MB-231 [17],Active
same,Activity,MCF-10A,Non-Toxic
same,Activity,MDA-MB-231 [18],8.89%
same,Activity,MDA-MB-231 [19],Active
same,Activity,[20],Non-Toxic
same,Activity,MDA-MB-231 [21],15.3%
same,IC50,MDA-MB-231 [22],5.99 µM
same,inhibition,MDA-MB-231 [23],Active
same,inhibition,MDA-MB-231 [24],Active
same,IC50,[25],6.24 µM
same,Activity,MDA-MB-231 [26],Active
same,inhibition,MDA-MB-231 [27],Active
same,Activity,MDA-MB-231 [28],15.9%
same,Activity,MDA-MB-231 [29],Active
same,Activity,MDA-MB-231 [30],Active
COc1ccc(C(=O)Nc2ccc(Nc3nccc(Nc4ccc(OC)cc4C)n3)cc2)cc1,IC50,MDA-MB-468,> 50 µM
same,inhibition,[4],23%
same,IC50,MCF7,> 50 µM
same,IC50,MDA-MB-231 [22],23.3 µM
Cc1ccc(S(=O)(=O)Nc2ccc(Nc3nc(Nc4ccc(F)cc4)cc(C(F)(F)F)n3)cc2)c(Cl)c1,IC50,MDA-MB-468,> 50 µM
same,inhibition,[4],18%
same,IC50,MCF7,> 50 µM
same,IC50,MDA-MB-231 [22],27.8 µM
COc1ccc(Nc2cc(C(F)(F)F)nc(Nc3ccc(NS(=O)(=O)c4c(Cl)cc(C)cc4OC)cc3)n2)cc1,IC50,MDA-MB-468,> 50 µM
same,inhibition,[4],11%
same,IC50,MCF7,> 50 µM
same,IC50,MDA-MB-231 [22],> 50 µM
COc1ccc(Nc2cc(C(F)(F)F)nc(Nc3ccc(NS(=O)(=O)c4ccc(OC)cc4)cc3)n2)cc1,IC50,MDA-MB-468,> 50 µM
same,inhibition,[4],43%
same,IC50,MCF7,> 50 µM
same,IC50,MDA-MB-231 [22],21.2 µM
COc1cc(C)cc(Cl)c1S(=O)(=O)Nc1ccc(Nc2nc(C)cc(Nc3ccc(F)cc3)n2)cc1,IC50,MDA-MB-468,> 50 µM
same,inhibition,[4],12%
same,IC50,MCF7,> 50 µM
same,IC50,MDA-MB-231 [22],> 50 µM
COc1ccc(Nc2cc(C)nc(Nc3ccc(NS(=O)(=O)c4c(Cl)cc(C)cc4OC)cc3)n2)cc1,IC50,MDA-MB-468,> 50 µM
same,inhibition,[4],12%
same,IC50,MCF7,> 50 µM
same,IC50,MDA-MB-231 [22],> 50 µM
